Data on eight molecules can be found in patent US10130096B2, “Method for protecting useful plants or plant propagation material” (SYNGENTA PARTICIPATIONS AG, priority 2011, dated 2018).

Bounds are passed on as bounds.

In assay [1] the test system is Alternaria solani. In words: Alternaria solani on tomato plants. Particulars: 4-week old tomato plants cv. Roter Gnom, spray, inoculated two days after application. The format is in vivo. The method, then: 4-week old tomato plants cv. Roter Gnom are sprayed in a spray chamber with the formulated test compound diluted in water. The test plants are inoculated by spraying them with a spore suspension two days after application. The inoculated test plants are incubated at 22/18° C. (day/night) and 95% rh in a greenhouse and the percentage leaf area covered by disease is assessed when an appropriate level of disease appears on untreated check plants (5-7 days after application).

Assay [2] relates to Pythium ultimum. In words: Example B-5: seed treatment against Pythium ultimum on cotton. Type of assay: in vivo. As to conditions: Globisporangium ultimum, rate of 200 g/100 kg seeds, infested soil, number of germinated, healthy plants. Here is the method: The trial is kept for 1 week in a growth room at 20° C. and darkness. After this period the trial is transferred to a greenhouse where a temperature of 21° C. and a 14 h light period is provided until the trial is finished. The following assessments are made: number of germinated, healthy plants. Each number is determined for 150 seeds per treatment (3 replicates a 50 seeds).

Assay [3] concerns Mycosphaerella arachidis (Cercospora arachidicola). In words: Mycosphaerella arachidis liquid culture growth inhibition. Type of assay: cell-based. As to conditions: photometric, 4-5 days after application, read-out: control on Mycosphaerella arachidis. The method, then:
(§1) Conidia of the fungus from cryogenic storage are directly mixed into nutrient broth (PDB potato dextrose broth). After placing a (DMSO) solution of test compound into a microtiter plate (96-well format), the nutrient broth containing the fungal spores is added.

Assay [4] relates to Fusarium culmorum. In words: Fusarium culmorum liquid culture growth inhibition. Type of assay: cell-based. Particulars: photometric, 3-4 days after application, read-out: control on Fusarium culmorum. Here is the method: Conidia of the fungus from cryogenic storage are directly mixed into nutrient broth (PDB potato dextrose broth). After placing a (DMSO) solution of test compound into a microtiter plate (96-well format), the nutrient broth containing the fungal spores is added. The test plates are incubated at 24° C. and the inhibition of growth is determined photometrically 3-4 days after application.

Assay [5] concerns Monographella nivalis (Microdochium nivale). In words: Monographella nivalis liquid culture growth inhibition. Type of assay: cell-based. As to conditions: photometric, 4-5 days after application, read-out: control on Monographella nivalis. Here is the method: Conidia of the fungus from cryogenic storage are directly mixed into nutrient broth (PDB potato dextrose broth). After placing a (DMSO) solution of test compound into a microtiter plate (96-well format), the nutrient broth containing the fungal spores is added. The test plates are incubated at 24° C. and the inhibition of growth is determined photometrically 4-5 days after application.

Assay [6] relates to Pythium ultimum. In words: Pythium ultimum on Cotton/Pouch. The format is in vivo. Particulars: Globisporangium ultimum, 168 h, cotton, pouch, 7 days at 17° C. The text has this: A spore/mycelium suspension is pipetted into the pouch simultaneously.
For assay [7], the system named is Glomerella lagenarium (Colletotrichum lagenarium). In words: Glomerella lagenarium liquid culture growth inhibition. Type of assay: cell-based. As to conditions: Colletotrichum orbiculare, photometric, 3-4 days after application, read-out: control on Glomerella lagenarium. The method, then: as §1
For assay [8], the system named is Botryotinia fuckeliana (Botrytis cinerea). Kind of assay: Botryotinia fuckeliana liquid culture growth inhibition. As to conditions: photometric, 3-4 days after application, read-out: control on Botryotinia fuckeliana. Type of assay: cell-based. The method, then:
Conidia of the fungus from cryogenic storage are directly mixed into nutrient broth (Vogels broth). After placing a (DMSO) solution of test compound into a microtiter plate (96-well format), the nutrient broth containing the fungal spores is added.

Assay [9] relates to Thanatephorus cucumeris (Rhizoctonia solani). Kind of assay: Thanatephorus cucumeris liquid culture growth inhibition. The format is cell-based. Particulars: photometric, 3-4 days after application, read-out: control on Thanatephorus cucumeris. The method, then: Mycelia fragments of a newly grown liquid culture of the fungus are directly mixed into nutrient broth (PDB potato dextrose broth). After placing a (DMSO) solution of the test compounds into a microtiter plate (96-well format), the nutrient broth containing the fungal material is added. The test plates are incubated at 24° C. and the inhibition of growth is determined photometrically 3-4 days after application.

Assay [10] has as its system Pythium ultimum. In words: Pythium ultimum liquid culture growth inhibition. The format is cell-based. As to conditions: Globisporangium ultimum, photometric, 2-3 days after application, read-out: control on Pythium ultimum. Here is the method: Mycelia fragments and oospores of a newly grown liquid culture of the fungus are directly mixed into nutrient broth (PDB potato dextrose broth). After placing a (DMSO) solution of test compound into a microtiter plate (96-well format), the nutrient broth containing the fungal mycelia/spore mixture is added.

Assay [11] relates to Pseudoperonospora cubensis. Kind of assay: Pseudoperonospora cubensis on Cucumber/Pouch. The format is in vivo. Particulars: 60 ppm; cucumber, pouch, inoculated 8 days after sowing, 7 days incubation. The text has this:
8 days after sowing cucumber plants were inoculated by spraying a spore suspension on the test plants.

Assay [12] concerns Puccinia recondita. Kind of assay: Puccinia recondita on Wheat/Pouch. The format is in vivo. Particulars: 20 ppm; wheat, pouch, inoculated 8 days after sowing, 8 days incubation. Here is the method: 8 days after sowing wheat plants were inoculated by spraying a spore suspension on the test plants. After an incubation period of 8 days at 24° C./22° C.

In the case of `OB1OCc2cc(Cl)ccc21` [Compound 1, 5-Chloro-3H-benzo[c][1,2]oxaborol-1-ol], in assay [1], the pest or weed control (in general, how far the test organism was held down) at 60 ppm is no less than 60%. Further, the pest or weed control at 200 g/100 kg seeds in [2] was no less than 50%. Moreover, the inhibition of growth at 200 ppm in assay [3], in assay [4], in assay [5], in assay [7], in assay [8] and in assay [9] was no less than 80% each time. In addition, the inhibition of growth at 200 ppm in [10] was no less than 80%. In [6], this molecule had a pest or weed control at 20 ppm of no less than 50%.
As for `CCC(N)COB1OCc2cc(Cl)ccc21` (stereo not drawn) [Compound 2, 1-(5-Chloro-3H-benzo[c][1,2]oxaborol-1-yloxymethyl)-propylamine], the pest or weed control at 60 ppm in [1] was no less than 60%. Also, the pest or weed control at 200 g/100 kg seeds in [2] was no less than 50%. Further, the inhibition of growth at 200 ppm in assay [3], in assay [4], in [5], in [7], in assay [8] and in assay [9] was no less than 80% in each case. The inhibition of growth at 200 ppm in assay [10] was no less than 80%. This molecule also came in with a pest or weed control at 20 ppm in assay [6] of no less than 50%.
With `CNCCOB1OCc2cc(Cl)ccc21` [Compound 4, [2-(5-Chloro-3H-benzo[c][1,2]oxaborol-1-yloxy)-ethyl]-methyl-amine], the inhibition of growth at 200 ppm in [3], in assay [4], in assay [5], in [7], in assay [8] and in [9] was no less than 80% throughout. Further, in assay [10], the inhibition of growth at 200 ppm was no less than 80%. The molecule also displayed a pest or weed control at 20 ppm in assay [6] of no less than 50%.
The molecule `NCCCOB1OCc2cc(Cl)ccc21` [Compound 5, 3-(5-Chloro-3H-benzo[c][1,2]oxaborol-1-yloxy)-propylamine] came in with a pest or weed control at 60 ppm in [1] of no less than 60%. In [11], the “control on Pseudoperonospora cubensis” value is “at least 50%”. This molecule also registered a pest or weed control at 200 g/100 kg seeds in assay [2] of no less than 50%. The inhibition of growth at 200 ppm in assay [3], in assay [4], in [5], in [7], in assay [8] and in [9] was no less than 80% in each case. The inhibition of growth at 200 ppm in [10] is no less than 80%. In addition, in assay [6], the pest or weed control at 20 ppm was no less than 50%.
`O=[N+]([O-])c1ccc2c(c1)B(O)OC2` [Compound 7, 6-Nitro-3H-benzo[c][1,2]oxaborol-1-ol]: the pest or weed control at 60 ppm in assay [1] was no less than 60%. Moreover, the inhibition of growth at 200 ppm in [3], in assay [5], in assay [7] and in assay [10] was no less than 80% in each case. In assay [6], the pest or weed control at 20 ppm was no less than 50%. Further, the “control on Puccinia recondita” value in [12] is listed as “at least 50%”.
With `OB1OCc2cc(F)ccc21` [Compound 8, 5-Fluoro-3H-benzo[c][1,2]oxaborol-1-ol], the pest or weed control at 60 ppm in assay [1] is no less than 60%. Further, in assay [2], the pest or weed control at 200 g/100 kg seeds was no less than 50%. Besides, the inhibition of growth at 200 ppm in [3], in assay [4], in assay [5], in assay [7], in assay [8] and in assay [9] was no less than 80% throughout. In assay [10], the inhibition of growth at 200 ppm is no less than 80%. In assay [6], this molecule had a pest or weed control at 20 ppm of no less than 50%.
With `NCC(=O)OB1OCc2cc(Cl)ccc21` [Compound 9, Amino-acetic acid 5-chloro-3H-benzo[c][1,2]oxaborol-1-yl ester], the inhibition of growth at 200 ppm in assay [3], in assay [4], in [5], in [7], in [8] and in [10] was no less than 80% each time. In [6], this molecule returned a pest or weed control at 20 ppm of no less than 50%.
As to `NCCCOB1OCc2cc(F)ccc21` [Compound 12, 3-(5-Fluoro-3H-benzo[c][1,2]oxaborol-1-yloxy)-propylamine], the pest or weed control at 200 g/100 kg seeds in assay [2] was no less than 50%. The inhibition of growth at 200 ppm in [3], in assay [4], in assay [5], in assay [7], in assay [8] and in [9] was no less than 80% throughout. In addition, in assay [10], the inhibition of growth at 200 ppm was no less than 80%. In assay [6], this molecule returned a pest or weed control at 20 ppm of no less than 50%.
